Assay results as given in ChEMBL document CHEMBL2074063, “P-glycoprotein-mediated efflux of hydroxyrubicin, a neutral anthracycline derivative, in resistant K562 cells” (FEBS Lett, 1994).

Target: ABCB1 (P-glycoprotein) (Homo sapiens, UniProt P08183)
Experiment: TP_TRANSPORTER: efflux in Doxorubicin resistant K562 cells

ABCB1 (P-glycoprotein), sequence (P08183 whole entry): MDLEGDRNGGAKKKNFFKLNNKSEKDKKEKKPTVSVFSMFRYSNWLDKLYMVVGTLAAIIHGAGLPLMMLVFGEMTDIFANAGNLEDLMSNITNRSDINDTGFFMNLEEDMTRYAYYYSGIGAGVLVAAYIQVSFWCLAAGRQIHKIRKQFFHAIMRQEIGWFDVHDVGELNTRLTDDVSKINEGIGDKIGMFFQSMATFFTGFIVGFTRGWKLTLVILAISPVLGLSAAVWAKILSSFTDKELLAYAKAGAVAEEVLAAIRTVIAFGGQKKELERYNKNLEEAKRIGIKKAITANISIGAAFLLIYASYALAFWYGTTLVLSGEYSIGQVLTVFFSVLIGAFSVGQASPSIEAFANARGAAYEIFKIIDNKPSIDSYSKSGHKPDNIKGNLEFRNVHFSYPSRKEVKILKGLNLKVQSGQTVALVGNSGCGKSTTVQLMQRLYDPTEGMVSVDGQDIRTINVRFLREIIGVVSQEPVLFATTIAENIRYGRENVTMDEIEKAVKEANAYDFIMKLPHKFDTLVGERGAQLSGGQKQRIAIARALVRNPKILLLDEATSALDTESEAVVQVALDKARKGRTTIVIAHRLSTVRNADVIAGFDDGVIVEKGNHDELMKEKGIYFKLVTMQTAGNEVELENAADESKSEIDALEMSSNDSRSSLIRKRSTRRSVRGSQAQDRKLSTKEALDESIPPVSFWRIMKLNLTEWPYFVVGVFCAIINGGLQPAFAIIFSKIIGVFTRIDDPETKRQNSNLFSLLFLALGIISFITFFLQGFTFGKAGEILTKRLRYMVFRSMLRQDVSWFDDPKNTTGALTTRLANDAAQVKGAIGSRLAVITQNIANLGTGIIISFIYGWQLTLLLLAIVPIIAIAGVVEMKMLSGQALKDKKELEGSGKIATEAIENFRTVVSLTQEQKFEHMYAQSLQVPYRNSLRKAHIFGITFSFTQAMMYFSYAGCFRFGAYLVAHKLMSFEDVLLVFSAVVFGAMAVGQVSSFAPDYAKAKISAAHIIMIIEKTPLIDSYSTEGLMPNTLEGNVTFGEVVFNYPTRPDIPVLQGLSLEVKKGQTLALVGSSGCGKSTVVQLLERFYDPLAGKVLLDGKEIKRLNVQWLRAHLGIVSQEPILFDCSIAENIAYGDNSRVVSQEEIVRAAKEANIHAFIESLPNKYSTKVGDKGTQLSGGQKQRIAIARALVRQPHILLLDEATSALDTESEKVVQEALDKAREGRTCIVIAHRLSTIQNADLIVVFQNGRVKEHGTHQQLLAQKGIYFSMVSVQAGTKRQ

COc1cccc2c1C(=O)c1c(O)c3c(c(O)c1C2=O)C[C@@](O)(C(=O)CO)C[C@@H]3O[C@H]1C[C@H](O)[C@H](O)[C@H](C)O1 [HYDROXYRUBICIN]
Km: 2000 nM
